{"source": "patent US5374772A", "about": "“Substituted benzoic acids, inhibitors of phospholipases A2” (Hoffmann-LaRoche Inc., priority 1993, dated 1994)", "tested_on": "paw edema induced by Naja naja venom phospholipase A2", "experiment": "Phospholipase A2 Rat Paw Edema", "format": "in vivo, Lewis rats", "conditions": "30 mg/kg ip, measured 2 hours after PLA2 injection"}
{"smiles": "CCCCCCCCCCCCCCCCCCOc1cc(OC(=O)C(c2ccccc2)c2ccccc2)cc(C(=O)O)c1", "note": "[Example 11, 3-(Octadecyloxy)-5-(2,2-diphenyl-1-oxoethoxy) benzoic acid]", "values": [{"measurement": "inhibition of edema (PLA2 rat paw edema)", "result": 29, "unit": "%"}]}
